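The compound was tested at five concentrations on cells cultured in 96-well plates, with a 48-hour exposure period. Here, GI50 denotes the concentration required for 50% inhibition of growth. TGI is the concentration that stops growth completely.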
How the values were obtained:
Assay in all cases: growth of human tumour cells (NCI), 48 h
SK-OV-3 ovarian = tested on: SK-OV-3 ovarian
RXF 393 renal = tested on: RXF 393 renal
SW-620 colon = tested on: SW-620 colon
OVCAR-4 ovarian = tested on: OVCAR-4 ovarian
CAKI-1 renal = tested on: CAKI-1 renal
HOP-92 NSCLC = tested on: HOP-92 NSCLC
SN12C renal = tested on: SN12C renal
SNB-75 CNS = tested on: SNB-75 CNS
HT29 colon = tested on: HT29 colon
RPMI-8226 leukemia = tested on: RPMI-8226 leukemia

Compound	GI50 (SK-OV-3 ovarian) [µM]	TGI (SK-OV-3 ovarian) [µM]	GI50 (RXF 393 renal) [µM]	TGI (RXF 393 renal) [µM]	GI50 (SW-620 colon) [µM]	TGI (SW-620 colon) [µM]	GI50 (OVCAR-4 ovarian) [µM]	TGI (OVCAR-4 ovarian) [µM]	GI50 (CAKI-1 renal) [µM]	TGI (CAKI-1 renal) [µM]	GI50 (HOP-92 NSCLC) [µM]	TGI (HOP-92 NSCLC) [µM]	GI50 (SN12C renal) [µM]	TGI (SN12C renal) [µM]	GI50 (SNB-75 CNS) [µM]	TGI (SNB-75 CNS) [µM]	GI50 (HT29 colon) [µM]	TGI (HT29 colon) [µM]	GI50 (RPMI-8226 leukemia) [µM]	TGI (RPMI-8226 leukemia) [µM]
Cc1nc(Sc2nc3ccc([N+](=O)[O-])cc3s2)sc1C	4.38	15.5	1.22	3.39	0.482	3.53	1.35	9.81	1.9	8.03	2.54	7.55	1.74	6.04	2.48	12.3	1.64	4.23	1.8	6.52
O=c1[nH]c(=O)n(C2CC(O)C(CO)O2)cc1COCC(F)(F)F (stereo not given)		> 100		> 100		> 100		> 100		> 100		> 100		> 100		> 100		> 100		> 100
CCOC(=O)C#Cc1c(C(=O)OCC)nnn1[C@@H]1O[C@H](CO)[C@H]2OC3(CCCCC3)O[C@H]21	17.7	33.3	1.8	3.46	1.81	3.64	2.04	4.48	1.76	3.31	2.23	5.27	3.11	9.37	11.5	24.2	1.93	3.77	3.07	7.97
CCn1c(=N)sc2nc3ccccc3n2c1=O		> 100		> 100		> 100		> 100		> 100		> 100		> 100		> 100		> 100		> 100
CC(=O)O[C@H](C[C@H](C(C)C)N(C)C(=O)[C@@H](NC(=O)[C@H]1CCCCN1C)C(C)C)c1cccc(C(=O)N[C@@H](Cc2ccccc2)C[C@H](C)C(=O)O)n1	0.0312	> 25	0.0225	> 25	< 0.0222	> 25	0.107	> 25	0.0686	> 25	0.0183	> 25	0.044	> 25	0.00695	> 25	0.0242	> 8.21	0.0213	> 25
COC(=O)/C(=C/c1ccc(OC)cc1)C(C(=O)O)=C1CCCCC1		> 100		> 100		> 100		> 100		> 100		> 100		> 100		> 100		> 100		> 100
COc1cccc(NC(=O)c2sc3nc4c(cc3c2N)C(O)CCC4)c1 (stereo not given)	0.317	> 71.3	0.278	37.7	0.107	> 100	0.775	> 100	0.538	> 100	0.169	23	0.562	> 100	0.17	24.7	0.133	> 100	0.333	> 100
O=C1C=C(Nc2ccc(S(=O)(=O)Nc3ncccn3)cc2)c2ccccc2C1=O		90.7		48		35.1		38.8		89.1		94		35.9		59.4		45		97.2
Nc1ccc(-c2ccc3ncc4ccc(=O)n(-c5cccc(C(F)(F)F)c5)c4c3c2)cn1	< 0.01	0.0222	< 0.01	0.0443	< 0.0125	13.3	< 0.01	0.0337	< 0.01	1.55	< 0.01	< 0.0226	< 0.0131	> 52.2	< 0.01	0.0227	0.115	12	< 0.01	0.241
COC(=O)N/N=C(\C)C(CN(C)C)C(c1ccccc1)c1c(O)c2ccccc2oc1=O (stereo not given)		> 100		> 100		> 100		> 100		> 100		> 100		> 100		> 100		> 100		> 100
N#C/C(=C\c1ccccc1)C(NO)Nc1ccccc1 (stereo not given)		> 100		> 100		> 100		> 100		> 100		> 100		> 100		> 100		> 100		> 100
COc1ccc2c(c1)CCc1c(CO)c(COC(=O)NC(C)C)n(C)c1-2		73.3		38.7		19.3		53.5		77.8		22.5		45.8		> 27.3		13.5		7.05
CC(C)=C1CCC(CN2CCOCC2)C1=O (stereo not given)		> 100		5.47		4.26		15.6		0.908		8.81		16.7		18		20.4		12.5

— PubChem BioAssay (NCI)
